Target: T1, Androgen receptor (Rattus norvegicus, UniProt P15207)
T1 sequence (P15207 whole entry): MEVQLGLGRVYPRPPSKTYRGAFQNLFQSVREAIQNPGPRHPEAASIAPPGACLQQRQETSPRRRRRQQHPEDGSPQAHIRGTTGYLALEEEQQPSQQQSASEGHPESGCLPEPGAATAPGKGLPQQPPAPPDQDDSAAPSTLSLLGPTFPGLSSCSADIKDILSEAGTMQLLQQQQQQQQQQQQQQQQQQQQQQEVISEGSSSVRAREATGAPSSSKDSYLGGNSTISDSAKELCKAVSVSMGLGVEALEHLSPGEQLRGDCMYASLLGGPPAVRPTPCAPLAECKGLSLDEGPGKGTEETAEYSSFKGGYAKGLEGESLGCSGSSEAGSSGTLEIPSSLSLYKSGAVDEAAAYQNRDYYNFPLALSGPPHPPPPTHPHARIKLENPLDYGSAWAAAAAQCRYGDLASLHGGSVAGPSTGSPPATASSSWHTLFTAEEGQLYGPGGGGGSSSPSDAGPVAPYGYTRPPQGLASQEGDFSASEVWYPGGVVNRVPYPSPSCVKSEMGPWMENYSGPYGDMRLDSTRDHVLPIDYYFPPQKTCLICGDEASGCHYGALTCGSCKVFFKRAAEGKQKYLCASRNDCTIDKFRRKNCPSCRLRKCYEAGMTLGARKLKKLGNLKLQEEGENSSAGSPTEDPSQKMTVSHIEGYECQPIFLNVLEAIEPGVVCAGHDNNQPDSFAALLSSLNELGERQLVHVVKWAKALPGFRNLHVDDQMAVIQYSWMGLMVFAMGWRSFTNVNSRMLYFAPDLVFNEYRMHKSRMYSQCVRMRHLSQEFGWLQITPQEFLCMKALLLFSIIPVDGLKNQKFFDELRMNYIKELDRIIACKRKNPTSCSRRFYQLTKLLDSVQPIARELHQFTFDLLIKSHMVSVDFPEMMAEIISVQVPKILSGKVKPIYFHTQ
Description: Inhibitory constant against rat prostate cytosol androgen receptor using [3H]mibolerone

Structure (SMILES) | Ki [nM]
CC1(C)C(=O)N(c2ccc(C#N)c(C(F)(F)F)c2)C(=S)N1CCCCO | 2.23
CC1(C)C(=O)N(c2ccc(C#N)c(I)c2)C(=S)N1CCCCO | 0.71
C[C@@H]1CC2=CC(=O)CC[C@@H]2[C@H]2CC[C@@]3(C)[C@@H](CC[C@]3(C)O)[C@@H]21 [MIBOLERONE] | 0.75

From ChEMBL document CHEMBL1133109, “Design, synthesis, and pharmacological characterization of 4-[4, 4-dimethyl-3-(4-hydroxybutyl)-5-oxo-2-thioxo-1-imidazolidinyl]- 2-iodobenzonitrile as a high-affinity nonsteroidal androgen receptor ligand” (J Med Chem, 2000)
